Results published in ChEMBL document CHEMBL3792329, “Exploration of 3-methylisoquinoline-4-carbonitriles as protein kinase A inhibitors of Plasmodium falciparum” (Bioorg Med Chem, 2016).

Assays:
[1] = Inhibition of asexual blood stage of Plasmodium falciparum 3D7 PKA assessed as inhibition of parasite proliferation after 72 hrs by Malstat assay
[2] = Inhibition of asexual blood stage of chloroquine-resistant Plasmodium falciparum W2mef PKA assessed as inhibition of parasite proliferation after 72 hrs by Malstat assay

Structure (SMILES)	IC50 [1] [µM]	IC50 [2] [µM]
CCCCNc1nc(C)c(C(N)=O)c2ccccc12	> 50	–
Cc1nc(NC(C)(C)C)c2ccccc2c1C#N	5.2	4.2
CCCCCNc1nc(C)c(C#N)c2ccccc12	8.6	9.6
Cc1nc(NC2CCCCC2)c2ccccc2c1C#N	> 50	> 50
Cc1nc(NCc2ccccc2)c2ccccc2c1C#N	> 50	> 50
CCCCNc1nc(C)c(C#N)c2ccccc12	34	33
Cc1nc(NCC(C)C)c2ccccc2c1C#N	> 50	28
CCCCNc1nc(CC)c(C#N)c2ccccc12	25	22
CCNc1nc(C)c(C#N)c2ccccc12	> 50	> 50
CCCNc1nc(C)c(C#N)c2ccccc12	> 50	> 50
Cc1nc(N)c2ccccc2c1C#N	34	36
CCCCOc1nc(C)c(C#N)c2ccccc12	36	16
